This note sets out measurements from ChEMBL document CHEMBL1153832, “Identification and characterization of UK-201844, a novel inhibitor that interferes with human immunodeficiency virus type 1 gp160 processing” (Antimicrob Agents Chemother, 2007).

For series [1], the system named is Human immunodeficiency virus 1. Briefly: Antiviral activity against HIV1 bearing VSV envelope infected in human HeLa CD4 cells coexpressing LTR/beta-Gal gene assessed as reduction in virus-induced beta-galactosidase reporter gene activity after 72 hrs by single-cycle infection assay. The series is classed as functional, organism-based. The note with it: Human immunodeficiency virus 1, HeLa. Background: A reporter such as luciferase makes a cellular process visible.

Series [2] has as its system Human immunodeficiency virus 1. Briefly: Antiviral activity against HIV1 bearing HIV1 NL4-3 envelope infected in human HeLa CD4 cells coexpressing LTR/beta-Gal gene assessed as reduction in virus-induced beta-galactosidase reporter gene activity after 72 hrs by single-cycle infection assay. The note with it: Human immunodeficiency virus 1, HeLa. The series is classed as functional, organism-based.

The subject of series [3] is Human immunodeficiency virus 1. Briefly: Antiviral activity against HIV1 bearing HIV1 NL4-3 envelope assessed as reduction in viral envelope-mediated membrane fusion by cell-based fusion assay. The series is classed as functional, organism-based.
Series [4] concerns Human immunodeficiency virus 1. Nature of the series: Antiviral activity against HIV1 NL4-3 infected in human MT2 cells assessed as inhibition of virus-induced cytopathic effect after 6 days by XTT assay. The series is classed as functional, organism-based. The note with it: Human immunodeficiency virus 1, NL4-3, MT2, 144 h. Background: Damage to the host cells serves as the signal in cytopathic effect assays.

Series [5] relates to Human immunodeficiency virus 1. Briefly: Antiviral activity against HIV1 NL4-3 infected in human PM1 cells assessed as inhibition of viral p24 antigen production after 5 days. The class given is functional, organism-based. The note with it: Human immunodeficiency virus 1, NL4-3, PM1, 120 h.
The nature of series [6]: Cytotoxicity against human PM1 cells after 6 days by XTT assay. The class given is cell-based. A general note: Formazan colour is commonly taken as a measure of viable cells.
Series [7] deals with Human immunodeficiency virus 1. Nature of the series: Antiviral activity against HIV1 NL4-3 infected in human CEM-SS cells. The series is classed as functional, organism-based.
The test system of series [8] is Human immunodeficiency virus 1. Briefly: Antiviral activity against recombinant HIV1 NL4/3BFL chimeric virus infected in human MT2 cells assessed as inhibition of virus-induced CPE. The note with it: Human immunodeficiency virus 1, NL4/3BFL. The series is classed as functional, organism-based.
Series [9] has as its system Human immunodeficiency virus 1. Briefly: Ratio of EC50 for recombinant HIV1 NL4-3/3BNt chimeric virus to EC50 for parental HIV1 NL4-3 virus. The class given is functional.
For series [10], the system named is Human immunodeficiency virus 1. Nature of the series: Antiviral activity against parental HIV1 NL4-3 infected in human MT2 cells by virus production assay. The series is classed as functional, organism-based. Conditions: Human immunodeficiency virus 1, NL4-3, MT2.
Series [11] deals with Human immunodeficiency virus 1. Briefly: Antiviral activity against recombinant HIV1 NL4-3 bearing envelope with V372E, D474N substitutions infected in human MT2 cells by virus production assay. The class given is functional, organism-based.
The subject of series [12] is Human immunodeficiency virus 1. Briefly: Antiviral activity against recombinant HIV1 NL4-3 bearing envelope with G354E substitution infected in human MT2 cells by virus production assay. The series is classed as functional, organism-based.
For series [13], the system named is Human immunodeficiency virus 1. Briefly: Ratio of EC50 for recombinant HIV1 NL4-3 bearing envelope with S162N, N302Y, G354E, V372E, D474N substitutions to EC50 for parental HIV1 NL4-3. The class given is functional.
In series [14] the test system is Human immunodeficiency virus 1. Briefly: Ratio of EC50 for recombinant HIV1 NL4-3 bearing envelope with S162N, N302Y substitutions to EC50 for parental HIV1 NL4-3. The series is classed as functional.
Series [15] concerns Human immunodeficiency virus 1. Briefly: Antiviral activity against HIV1 NL4-3 transfected in HEK293 cells assessed as inhibition of viral envelope gp160 processing at 0.5 uM by Western blot. The class given is functional. Conditions: Human immunodeficiency virus 1, NL4-3, HEK293.
The test system of series [16] is Human immunodeficiency virus 1. Nature of the series: Antiviral activity against HIV1 NL4/3BFL chimeric virus transfected in HEK293 cells assessed as inhibition of viral envelope gp160/gp120 processing at 15 uM by Western blot. The class given is functional. The note with it: Human immunodeficiency virus 1, NL4/3BFL.
Series [17] relates to Human immunodeficiency virus 1. Nature of the series: Antiviral activity against HIV1 NL4/3BFL chimeric virus infected in human MT2 cells assessed as inhibition of viral p24 antigen level at 2 uM by Western blot. The series is classed as functional. Conditions: Human immunodeficiency virus 1, NL4/3BFL.
The subject of series [18] is Human immunodeficiency virus 1. Nature of the series: Antiviral activity against HIV1 NL4-3 transfected in HEK293 cells assessed as inhibition of infectious virus production at 15 uM. More on the design: scale not given: the % may be the effect or the level left. The class given is functional.
Series [19] deals with Human immunodeficiency virus 1. Briefly: Inhibition of HIV1 NL4-3 proteins incorporation into virions transfected in HEK293 cells assessed as aberrant Env protein at 15 uM by Western blot. The series is classed as functional, organism-based.
Series [20] concerns the target Furin (Homo sapiens) (UniProt P09958). Briefly: Inhibition of human recombinant furin up to 100 uM.
Series [21] has as its target T1, Proprotein convertase subtilisin/kexin type 6 (Rattus norvegicus) (UniProt Q63415).
T1 sequence (whole entry): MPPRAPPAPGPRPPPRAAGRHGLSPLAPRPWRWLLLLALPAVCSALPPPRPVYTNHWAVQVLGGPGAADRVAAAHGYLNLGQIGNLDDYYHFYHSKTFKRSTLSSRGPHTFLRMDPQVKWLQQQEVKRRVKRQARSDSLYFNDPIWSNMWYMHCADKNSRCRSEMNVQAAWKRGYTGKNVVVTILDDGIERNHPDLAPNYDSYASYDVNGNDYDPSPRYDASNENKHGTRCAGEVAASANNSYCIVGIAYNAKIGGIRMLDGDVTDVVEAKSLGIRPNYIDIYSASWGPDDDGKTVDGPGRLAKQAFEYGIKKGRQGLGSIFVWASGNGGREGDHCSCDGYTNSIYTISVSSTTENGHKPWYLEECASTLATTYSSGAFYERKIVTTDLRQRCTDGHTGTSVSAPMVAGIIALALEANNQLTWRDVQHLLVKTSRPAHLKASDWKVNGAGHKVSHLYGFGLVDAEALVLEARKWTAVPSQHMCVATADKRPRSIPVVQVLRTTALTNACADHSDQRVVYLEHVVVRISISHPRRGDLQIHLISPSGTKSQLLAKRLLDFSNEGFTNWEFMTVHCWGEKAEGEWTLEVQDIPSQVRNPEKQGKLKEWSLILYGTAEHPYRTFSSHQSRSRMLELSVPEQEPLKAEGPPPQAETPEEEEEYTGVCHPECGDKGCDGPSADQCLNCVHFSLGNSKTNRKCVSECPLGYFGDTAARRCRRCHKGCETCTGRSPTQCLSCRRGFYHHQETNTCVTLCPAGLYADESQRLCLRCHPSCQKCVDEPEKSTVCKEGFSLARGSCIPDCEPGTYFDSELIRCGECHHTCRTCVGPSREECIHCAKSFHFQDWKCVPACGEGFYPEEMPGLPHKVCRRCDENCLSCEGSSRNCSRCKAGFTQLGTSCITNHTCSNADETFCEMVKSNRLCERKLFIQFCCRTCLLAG
Nature of the series: Inhibition of rat PACE4 up to 100 uM.

pEC50: −log10 of the molar value. Active and inactive are the calls of the source. The calls are words filed in the database; no cut-off is given here. Some results are limits rather than exact numbers.

Furin (Homo sapiens), sequence (P09958 whole entry): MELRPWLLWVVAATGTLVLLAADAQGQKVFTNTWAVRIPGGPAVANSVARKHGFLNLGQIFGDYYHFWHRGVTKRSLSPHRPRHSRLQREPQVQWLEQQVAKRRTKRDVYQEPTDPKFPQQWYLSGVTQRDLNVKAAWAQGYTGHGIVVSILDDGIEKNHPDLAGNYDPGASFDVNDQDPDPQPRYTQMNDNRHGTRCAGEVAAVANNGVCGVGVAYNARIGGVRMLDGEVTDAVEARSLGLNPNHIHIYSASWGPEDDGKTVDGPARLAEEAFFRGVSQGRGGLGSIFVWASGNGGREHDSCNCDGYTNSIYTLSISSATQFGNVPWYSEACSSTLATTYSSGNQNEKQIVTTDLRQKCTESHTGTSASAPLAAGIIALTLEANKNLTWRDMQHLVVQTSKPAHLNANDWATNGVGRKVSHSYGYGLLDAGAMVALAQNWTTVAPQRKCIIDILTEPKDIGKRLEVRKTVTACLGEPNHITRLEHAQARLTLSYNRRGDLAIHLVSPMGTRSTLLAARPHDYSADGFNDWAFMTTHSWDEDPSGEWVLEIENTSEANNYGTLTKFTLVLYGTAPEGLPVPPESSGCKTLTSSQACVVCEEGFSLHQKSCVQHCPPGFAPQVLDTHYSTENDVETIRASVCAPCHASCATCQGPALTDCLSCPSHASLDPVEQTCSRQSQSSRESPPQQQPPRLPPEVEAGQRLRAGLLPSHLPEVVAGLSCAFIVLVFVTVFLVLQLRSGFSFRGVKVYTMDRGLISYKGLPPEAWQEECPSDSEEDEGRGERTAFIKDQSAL

As a reminder, the pEC50 is −log10 of the EC50, conventionally taken in molar units. A word on the CC50: it is the concentration at which the toxic effect on the cells reaches its halfway point. In general, inhibition refers to the relative decrease from the control value, in per cent. As to `NC(=O)C(c1ccccc1)(c1ccccc1)[C@H]1CCCN(CCc2ccc3c(c2)CCO3)C1`, the negative-log EC50 (pEC50) was less than 4.49 in series [1]; less than 4.49 in series [2]; 5.89 in series [4]; 5.57 in series [5]; less than 4.49 in series [8]; 5.99 in series [10]. The pEC50 was less than 4.49 in series [11] and 6.05 in [12]. Besides, the outcome in series [3], in series [20] and in series [21] was inactive. The compound also showed a CC50 at 144 h in [6] of 47000 nM. The EC50 entry in [7] is “Active”. Further, the “fold change (FC)” value is listed as 1 in series [9], greater than 31 in series [13] and 8.3 in [14]. In [15], the inhibition at 0.5 µM was determined as 12%. The inhibition at 15 µM in [16] worked out at 2%. The inhibition at 2 µM in series [17] came to 2%. Besides, the Activity in series [18] is 100%. Moreover, in series [19], the result was Active.
